Experimental data as given in patent publication US11161829B1, “Dihydrofuran chalcone compound and preparation method thereof” (SOUTH CHINA BOTANICAL GARDEN, CHINESE ACADEMY OF SCIENCES, priority 2018, dated 2021).

Tests used:
[1] = Solubility in methanol (structure identification); type: physicochemical
[2] = DPPH radical scavenging assay; type: biochemical; details: 0.2 mM DPPH in ethanol, 30 minutes in dark at room temperature, absorbance at 517 nm; read-out: IC50 value against DPPH radicals
Experimental: DPPH is a stable free radical. When a free radical scavenger is present, light absorption of DPPH will be reduced when the single electron is scavenged, which allows to evaluate free radical scavenging ability of the substance and accordingly determine antioxidant ability thereof. The DPPH radical scavenging ability of the dihydrofuran chalcone was measured through the DPPH radical scavenging assay, so as to evaluate the antioxidant ability of the compound. The assay comprised the following steps: 1,1-Diphenyl-2-picrylhydrazyl (DPPH) was dissolved in absolute ethanol to obtain a solution with a concentration of 0.2 mM. The dihydrofuran chalcone was dissolved in absolute ethanol. 80 μL of the ethanol solution of dihydrofuran chalcone and 160 μL of the 0.2 mM DPPH ethanol solution were mixed and the mixture was placed in dark at room temperature for 30 minutes. Then, light absorbance at 517 nm was measured using a microplate reader (SpectraMax 190, Molecular Devices, USA), and Vc was employed as a positive control.

| solubility in methanol [1] | IC50 [2] [µM] | SMILES |
| --- | --- | --- |
| easily soluble |  | CC(C)(O)C1Cc2c(O)ccc(C(=O)/C=C/c3ccc(O)cc3O)c2O1 (centres unmarked) [compound 1, dihydrofuran chalcone] |
|  | 100 | O=C1O[C@H]([C@@H](O)CO)C(O)=C1O [Vc, vitamin C] |
